Data from US20060019952A1, “Anti-viral therapeutics” (ELIXIR PHARMACEUTICALS, INC., priority 2004, published 2006).

Target: T1, GFP-hSIRT2 isoform 1 (Homo sapiens, UniProt Q8IXJ6)
T1 construct: expressed in transfected cells; host or cells: HeLa
T1 sequence (Q8IXJ6 1-389): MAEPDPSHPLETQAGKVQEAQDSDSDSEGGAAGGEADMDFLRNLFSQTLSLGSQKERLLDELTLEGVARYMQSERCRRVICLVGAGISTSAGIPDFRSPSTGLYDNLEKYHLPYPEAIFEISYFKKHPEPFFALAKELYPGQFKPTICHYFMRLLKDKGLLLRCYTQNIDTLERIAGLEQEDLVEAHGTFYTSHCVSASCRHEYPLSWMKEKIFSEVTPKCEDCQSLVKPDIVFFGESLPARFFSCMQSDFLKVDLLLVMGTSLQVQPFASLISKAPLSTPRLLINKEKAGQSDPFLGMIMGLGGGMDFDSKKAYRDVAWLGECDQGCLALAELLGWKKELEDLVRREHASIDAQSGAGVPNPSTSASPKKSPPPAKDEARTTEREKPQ
Assay: Acetylated tubulin staining in HeLa cells transfected with GFP-hSIRT2 isoform 1
Assay type: cell-based
Conditions: 50 μM compound with 1 μM TSA, added 36 hours post transfection, fixed next morning, versus DMSO
Description: HeLa cells were transfected with GFP-hSIRT2 isoform 1. At 36 hours post transfection 1 μM of TSA and either DMSO or 50 μM of Compound 8 was added. The next morning cells were fixed, permeabilized, and stained for acetylated tubulin.

- tubulin acetylation in cells expressing SIRT2 (staining for acetylated tubulin): more highly acetylated
SMILES: NC(=O)COC(=O)c1sc2ccccc2c1Cl [Compound 8, 3-Chloro-benzo[b]thiophene-2-carboxylic acid carbamoylmethyl ester]
